# From patent US8785416B2, “Sulphated disaccharides for the treatment of neurodegenerative and/or neurovascular diseases” (Bioiberica, S.A., priority 2009, dated 2014)
# Columns and labels:
# rat hippocampal slices = assay: Oxygen and glucose deprivation (15 minutes OGD, 2 hours reoxygenation) in hippocampal slices, MTT cell viability; assay type: cell-based
# Protocol: Male Spague Dawley strain rats (250-325 g) were used. After anaesthesia by means of an intraperitoneal injection of 60 mg/Kg sodium pentobarbital (Euta-Lender®), they were decapitated with a guillotine and the brain was extracted after a craniotomy. The brain was immediately submersed in a dissection solution, a cold (4° C.) modified Krebs-Henseleit solution at pH 7.4, the composition of which is: 120 mM NaCl, 2 mM KCl, 0.5 mM CaCl2, 26 mM NaHCO3, 10 mM MgSO4, 1.18 mM KH2PO4, 11 mM glucose and 200 mM sucrose, bubbled with 95% O2-5% CO2. The hippocampi were isolated, embedded in 2% low melting point agarose (Sigma-Aldrich), and cut into 350 μm transverse slices in a vibratome (Leica VT1000S).
# After the cutting in the vibratome, the slices were transferred to a vial with sucrose-free dissection Krebs solution, bubbled with 95% O2-5% CO2 for 60 minutes (equilibrium period).
# After the equilibrating period, the medium was removed and an oxygenated solution (normal Krebs solution (120 mM NaCl, 2 mM KCl, 2 mM CaCl2, 26 mM NaHCO3, 1.19 mM MgSO4, 1.18 mM KH2PO4 and 11 mM glucose), bubbled with 5% CO2 and 95% O2 for 30 minutes (preincubation period), was introduced. The baseline slices were maintained in this oxygenated solution throughout the entire experiment. To induce OGD, the oxygenated solution was replaced with another one which lacked glucose and was bubbled with a mixture of gases of 5% CO2 and 95% N2 (anoxic solution). The slices were in a bath at 37° C. After inducing OGD, the anoxic medium was replaced with another one which contained the oxygenated solution (reoxygenation period).
# To evaluate the effect of the compounds, they were incubated for the 30 minutes of the preincubation and throughout the OGD and during the reoxygenation. Two OGD-reoxygenation protocols were used: (i) 1 hour of OGD and 2 hours of reoxygenation and (ii) 15 minutes of OGD followed by 2 hours of reoxygenation.
# When the OGD-reoxygenation protocol (ii): 15 minutes of OGD followed by 2 hours of reoxygenation was used, the slices were incubated with increasing concentrations of compound Ic (0.3 and 1 μM) or with increasing concentrations of compound Ib (1 and 3 μM). In the same study these two compounds of the invention were compared with N-acetylcysteine (NAC) at 10 mM. The baseline (slices in the absence of compound Ic or Ib and of OGD) and the control (slices in the absence of compound Ic or Ib and with OGD) were also included.
# For the protocol of 15 minutes of OGD followed by 2 hours of reoxygenation, the cell viability was evaluated by means of the tetrazolium salt MTT, which is internalized in those cells which are viable and are therefore capable of reducing the tetrazolium to formazan which is an insoluble and coloured product which is deposited in the […]. To that end, after the experiment had ended, the hippocampal slices were incubated with MTT at a final concentration of 0.5 mg/mL in a Krebs-HEPES solution (in mM: NaCl, 144; KCl, 5.9; MgCl2, 1.2; CaCl2, 2; HEPES, 10; glucose, 11; at pH 7.3) at 37° C. After 3 hours, the medium was removed and the formazan precipitated in the solution was dissolved in dimethylsulfoxide. Then, the absorbance was measured in a plate reader (Labsystems iEMS Reader MF), at 500 nm. The data were represented taking the result of the baseline slices, i.e., those not subjected to OGD, as 100% viability.
# [1] = system: SH-SY5Y human neuroblastoma cell line; assay: Cell toxicity study, LDH release, SH-SY5Y cells incubated 48 hours; assay type: cell-based; settings: 100 μM, 48 hours incubation
# Protocol: The cell toxicity studies were performed on the SH-SY5Y human neuroblastoma cell line, incubating said cells for 48 hours with the compound under study. The cell viability was assessed by quantifying the release of lactate dehydrogenase (LDH), which is a cytoplasmic enzyme which is released into the extracellular medium when the integrity of the cytoplasmic membrane is lost.
# [2] = system: SH-SY5Y human neuroblastoma cells; assay: Neuroprotection against cell death induced by rotenone plus oligomycin-A (oxidative stress), LDH release; assay type: cell-based
# Protocol: An oxidative stress model consists of blocking mitochondrial respiratory chain complexes I and V by means of the combination of rotenone plus oligomycin-A, respectively. As a result of the interruption of the mitochondrial respiratory chain, the cell is unable to continue producing ATP, and the free radicals are generated exceeding the capacity of the cell to neutralize them, and as a result, cell death occurs.
# SH-SY5Y human neuroblastoma cells were cultured in a monolayer in 75 cm^2 flasks with a vented stopper. The culture medium used was Dulbecco's Modified Eagle's Medium (DMEM) with a high glucose content ([…]) and supplemented with 10% foetal bovine serum, 2 mM L-Glutamine, 50 IU/mL penicillin and 50 μg/mL streptomycin.
# The cell cultures were maintained in an incubator at 37° C. in a humid environment, with 5% CO2 and 95% air. The culture medium was changed twice a week, performing 1:4 passages when the cells reached 70-80% confluence. To perform the passages, the cells were detached by means of their treatment with trypsin-EDTA.
# For the cell viability assays, the cells were seeded in sterile 48-well plates at a density of 80,000 cells/well. The experiments were performed 24-48 hours after their seeding.
# To evaluate the neuroprotective effect of the compounds, the SH-SY5Y cells were preincubated for 24 hours with the compound under study, and subsequently incubated for 24 hours with the compound under study in the presence of the toxic substances (a combination of 10 μM rotenone and 1 μM oligomycin-A); at the end of this period the cell viability was evaluated by quantifying the release of the LDH enzyme.
# The assessment of this enzyme was performed by means of a commercial kit (Cytotoxicity detection kit-LDH; Roche) following the instructions of the company. The samples were colorimetrically analyzed in a plate reader (Labsystems iEMS Reader MF), using the suitable filter at 490-600 nm and obtaining the absorbance values.
# The % of cell death was defined as the % of LDH released into the extracellular medium with respect to the total (sum of intra- and extracellular LDH).
# Compounds Ic and Ib were studied at four concentrations (0.001, 0.003, 0.01 and 0.03 μM), chondroitin sulphate (supplied by Bioibérica, S.A.) was assayed at two concentrations (10 and 60 μM) and trolox (Sigma Aldrich) was assayed at two concentrations (30 and 300 μM). The experiment also included the baseline (SH-SY5Y cells in the absence of compound and of toxic stimulus) and the control (SH-SY5Y cells cultured in the absence of compound and in the presence of the toxic stimulus rotenone plus oligomycin).
# [3] = system: mice (photothrombotic stroke model); assay: Experimental photothrombotic stroke model, cortical infarction volume; assay type: in vivo, mouse; settings: 15 mg/kg i.p.
# Excerpt: Neuronal death occurs during brain ischemia or stroke; therefore a medicament with a neuroprotective profile can have a therapeutic potential in patients who have suffered from a cerebral infarction or stroke. To explore if the compounds of formula (I) can offer neuroprotection in vivo, the experimental photothrombotic stroke model was used. In the photothrombosis model a focal cerebral infarction is induced in the area of the cortex illuminated by means of a cold light source in mice previously treated with the Rose Bengal stain; this stain is photosensitive and produces free radicals when it is stimulated with light, causing lesions in the surrounding vascular endothelium, which causes platelet aggregation and the formation of thrombi in the microvessels of the cerebral cortex (Non-invasive induction of focal cerebral ischemia in mice by photothrombosis of cortical microvessels: characterization of inflammatory responses, M. Schroeter et al., J Neurosci Methods. 117(1), 43-49. (2002); Melatonin reduces infarction volume in a photothrombotic stroke model in the wild-type but not cyclooxygenase-1-gene knockout mice, L Y. Zhou et al., J Pineal Res. 41(2), 150-156. (2006)).
# Adult male Swiss breed mice from Harlan laboratories (Barcelona), with a weight of about 30 g, were used. Once anaesthetised with isoflurane, the mice were placed in a stereotaxic frame, maintaining their rectal temperature at 37±0.5° C. during the entire procedure. Subsequently, the cranium was exposed by means of a dorsomedial incision in the skin and the periosteum was removed. By means of the use of a micromanipulator, a fibre-optic cable was placed to emit a beam of light of 1.9 mm in diameter and 3000° K, connected to a cold light source (Zeiss KL 1500), in 2.0 mm posterior and 3.0 mm lateral to Bregma on the right side. According to the mouse brain atlas (Franklin and Paxinos, 1986), the sensitive-motor cortex, the putamen caudate and the hippocampus are right below this stereotaxic position. Then, the mice were injected with 1 mg of the Rose Bengal photosensitive probe and the brain was illuminated through the intact cranium for 30 minutes. Finally, the skin was sutured and the animals were left in a cage until their recovery under observation.
# The animals were sacrificed by decapitation 72 hours after the ischemia. […]
# To quantify the cortical cerebral infarction volume, the sections stained with TTC were scanned on both their rostral and caudal part and by means of the image analysis programme ImageJ 1.41 (National Institutes of Health, Bethesda, Md., USA) the area of the ipsi-, contralateral cortex and the cerebral infarction of each of the sections scanned, both in the caudal and rostral part, was quantified. Subsequently, the cerebral infarction volume was calculated. […]
compound,measurement,setting,value
"CC(=O)N[C@@H](CS)C(=O)O [N-acetylcysteine, reference compound]",viability at 10000 µM,"rat hippocampal slices; Rattus norvegicus, 10 mM, 15 minutes OGD, 2 hours reoxygenation, baseline 100%, control 67%, read-out: maximum statistically significant protection (cell viability, MTT)",83%
CO[C@H]1OC(COS(=O)(=O)[O-])[C@@H](O)[C@H](O[C@@H]2OC(C(=O)[O-])[C@@H](O)[C@H](O)C2O)C1NC(C)=O.[Na+].[Na+] (stereo partly drawn) [compound Ib],cell toxicity (release of LDH),[1],did not show toxicity
same,efficacy in comparison with N-acetylcysteine,"rat hippocampal slices; Ic 0.3 and 1 μM, Ib 1 and 3 μM vs N-acetylcysteine 10 mM",higher efficacy
same,viability at 3 µM,"rat hippocampal slices; Rattus norvegicus, 3 μM, 15 minutes OGD, 2 hours reoxygenation, baseline 100%, control 67%, read-out: maximum statistically significant protection (cell viability, MTT)",85%
same,maximum statistically significant protection against cell death (% of released LDH) induced by rotenone and oligomycin,"[2]; 0.03 μM, 24 h preincubation + 24 h with 10 μM rotenone and 1 μM oligomycin-A",40%
same,protective effect compared with chondroitin sulphate and trolox,"[2]; Ic, Ib at 0.001-0.03 μM vs chondroitin sulphate 10 and 60 μM, trolox 30 and 300 μM",more effective than chondroitin sulphate and than trolox
"COc1ccc2[nH]cc(CCNC(C)=O)c2c1 [melatonin, reference compound]",cortical infarction volume,"[3]; 72 hours after ischemia, saline 6.1±2.18%, mean and standard deviation",4.3±1.63%
same,protection (reduction of cortical infarction volume),[3]; p<0.05 vs saline,29%
"Cc1c(C)c2c(c(C)c1O)CCC(C)(C(=O)O)O2 (stereo not drawn) [trolox, reference compound]",effect on cell death induced by rotenone and oligomycin,[2]; 30 and 300 μM,reduced cell death
